Test results taken from ChEMBL document CHEMBL1201862, “PubChem BioAssay data set” (2004).
Active and inactive are the calls of the source.

Assays:
[1] = luciferase reporter signal suppression in cells – H4 neuroglioma cells, luminescence, dose response (AID 1990); format: functional, cell-based
[2] = target: T1, Heat shock factor protein 1 (Mus musculus, UniProt P38532); test: decrease of HSF1-responsive luciferase luminescence – cell-based, NIH3T3, dose retest, confirmation (AID 2382); format: functional;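 also: NIH3T3 fibroblasts with HSF1-driven luciferase reporter stressed by proteasome inhibitor MG132; luminescence from HSF1-driven luciferase expression after 8 hours of MG132 stress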
T1 sequence (P38532 whole entry): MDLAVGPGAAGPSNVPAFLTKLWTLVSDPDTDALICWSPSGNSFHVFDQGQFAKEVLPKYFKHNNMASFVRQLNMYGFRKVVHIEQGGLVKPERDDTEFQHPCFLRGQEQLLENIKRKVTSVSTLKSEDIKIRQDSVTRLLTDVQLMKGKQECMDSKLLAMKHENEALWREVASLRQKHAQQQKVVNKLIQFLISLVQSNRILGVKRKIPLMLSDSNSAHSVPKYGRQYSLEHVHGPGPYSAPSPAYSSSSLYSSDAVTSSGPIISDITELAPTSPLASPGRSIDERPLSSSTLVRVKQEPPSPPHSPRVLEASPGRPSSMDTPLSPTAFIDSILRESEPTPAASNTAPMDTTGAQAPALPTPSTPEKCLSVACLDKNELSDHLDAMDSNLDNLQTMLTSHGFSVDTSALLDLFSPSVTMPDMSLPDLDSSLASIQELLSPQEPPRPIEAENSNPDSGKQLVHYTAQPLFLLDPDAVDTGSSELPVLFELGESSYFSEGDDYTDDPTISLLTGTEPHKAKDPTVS

[3] = target: T2, Microphthalmia-associated transcription factor (Homo sapiens, UniProt O75030); test: reducers of TRPM1 reporter luminescence, concentration series – cell-based, SK-MEL-5, cherry-picked, set 3, MITF inhibitor project, dose response (AID 493073); format: functional;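 also: SK-MEL-5 melanoma cells with luciferase driven by the MITF target TRPM1 promoter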
T2 sequence (O75030 whole entry): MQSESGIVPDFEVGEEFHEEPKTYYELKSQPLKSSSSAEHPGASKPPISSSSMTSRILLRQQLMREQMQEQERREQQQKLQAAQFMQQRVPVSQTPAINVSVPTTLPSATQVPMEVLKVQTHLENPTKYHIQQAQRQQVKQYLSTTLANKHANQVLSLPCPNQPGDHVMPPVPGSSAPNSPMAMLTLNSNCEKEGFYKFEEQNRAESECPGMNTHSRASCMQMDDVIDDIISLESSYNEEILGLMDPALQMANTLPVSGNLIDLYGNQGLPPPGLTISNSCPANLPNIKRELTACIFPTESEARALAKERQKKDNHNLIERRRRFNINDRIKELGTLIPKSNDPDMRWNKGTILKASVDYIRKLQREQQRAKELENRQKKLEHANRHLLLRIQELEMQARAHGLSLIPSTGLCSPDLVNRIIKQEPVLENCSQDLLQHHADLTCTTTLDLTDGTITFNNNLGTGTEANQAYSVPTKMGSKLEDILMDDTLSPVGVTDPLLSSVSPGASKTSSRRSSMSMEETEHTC

[4] = target: Photoreceptor-specific nuclear receptor (Homo sapiens, UniProt Q9Y5X4); format: functional, cell-based;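 also: CHO-S cells with Gal4-NCOR and VP16-NR2E3 two-hybrid luciferase reporter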
[5] = A549 cell cytotoxicity, dose response, cytotoxicity control, plate reader, cherry-pick, antagonist series (AID 743412); format: functional, cell-based
[6] = blockers of bursicon-stimulated LGR2 cAMP reporter – cell-based, HEK293, CRE-luciferase reporter, cherry pick, set 2, dose response (AID 743343); format: functional;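 also: transfected cells were stimulated with diluted bursicon conditioned medium after compound addition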
[7] = blockade of melanocortin 4 receptor signaling – cell-based, plate reader, cherry pick, counter-screen for LGR2 antagonist project, dose response (AID 743444); format: functional;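 also: transfected HEK 293 cells stimulated with alpha-MSH peptide; potency of inhibitors of the alpha-MSH evoked signal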
[8] = M. tuberculosis H37Rv growth inhibitors, H37Rv strain (AID 1626); format: functional
[9] = target: NAD-dependent protein deacylase sirtuin-5, mitochondrial (Homo sapiens, UniProt Q9NXA8); test: sirtuin-5 deacylation blockers, concentration series – biochemical, fluorescence imaging, cherry-pick, set 5, dose response (AID 720591);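 also: desuccinylation of succinyl peptide AMC substrate read as fluorescence after trypsin release; potency of inhibitors that lower fluorescence and may act on trypsin instead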
[10] = Trypanosoma cruzi growth suppression in host cells – NIH3T3 host cells, beta-gal luminescence, confirmation (AID 2044); format: functional, cell-based;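 also: intracellular parasites grown in NIH/3T3 mouse fibroblasts as host cells; luminescent beta-galactosidase reporter signal from transgenic T. cruzi replicating inside host cells; inhibitors lower the luminescence signal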
[11] = NIH3T3 cell viability loss – ATP luminescence, mouse fibroblasts, counter-screen, dose response (AID 2010); format: functional, cell-based;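 also: cells exposed to compound for about 90 hours before reading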
[12] = target: T1, Heat shock factor protein 1; test: enhancement of HSF1-driven luciferase signal – cell-based, NIH3T3, luminescence, dose retest, confirmation (AID 435004); format: functional;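 also: stress induced by proteasome inhibitor MG132 added 30 min after compound; luciferase reporter driven by HSF1 response element in NIH3T3 cells; actives raise luminescence as potentiators of the MG132 stress response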
[13] = toxicity toward HepG2 liver cells – cell-based, plate reader, cherry-pick, antagonist series, cytotoxicity control, dose response (AID 743416); format: functional
[14] = viability loss in HEK293 cells – cell-based, plate reader, cherry-picked samples, cytotoxicity control, dose response (AID 743446); format: functional
[15] = viability of uninfected HEp-2 cells – cell-based, HTS, cytotoxicity control for RSV inhibitor project, dose response (AID 2410); format: functional; settings: human respiratory syncytial virus
[16] = viability of PTEN-deleted HCT116 cells – cell-based, HCT116 PTEN knockout, dose response (AID 1047); format: functional;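 also: HCT116 colon tumor cells with PTEN knocked out; cells exposed to compound for 60 hours before readout; potency for loss of cell viability measured by luminescence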
[17] = viability of HCT116 lacking mutant beta-catenin – cell-based, human colon tumor, dose response (AID 1045); format: functional;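 also: HCT116 colon tumor cells with beta catenin knocked out; cells exposed to compound for 60 hours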
Leucine aminopeptidase = target: T3, Leucine aminopeptidase (Plasmodium falciparum 3D7, UniProt Q8IL11); test: P. falciparum M17LAP inhibitors, primary screen, biochemical, fluorogenic H-Leu-NHMec substrate, 1536-well (AID 1619); format: functional
T3 sequence (Q8IL11 whole entry): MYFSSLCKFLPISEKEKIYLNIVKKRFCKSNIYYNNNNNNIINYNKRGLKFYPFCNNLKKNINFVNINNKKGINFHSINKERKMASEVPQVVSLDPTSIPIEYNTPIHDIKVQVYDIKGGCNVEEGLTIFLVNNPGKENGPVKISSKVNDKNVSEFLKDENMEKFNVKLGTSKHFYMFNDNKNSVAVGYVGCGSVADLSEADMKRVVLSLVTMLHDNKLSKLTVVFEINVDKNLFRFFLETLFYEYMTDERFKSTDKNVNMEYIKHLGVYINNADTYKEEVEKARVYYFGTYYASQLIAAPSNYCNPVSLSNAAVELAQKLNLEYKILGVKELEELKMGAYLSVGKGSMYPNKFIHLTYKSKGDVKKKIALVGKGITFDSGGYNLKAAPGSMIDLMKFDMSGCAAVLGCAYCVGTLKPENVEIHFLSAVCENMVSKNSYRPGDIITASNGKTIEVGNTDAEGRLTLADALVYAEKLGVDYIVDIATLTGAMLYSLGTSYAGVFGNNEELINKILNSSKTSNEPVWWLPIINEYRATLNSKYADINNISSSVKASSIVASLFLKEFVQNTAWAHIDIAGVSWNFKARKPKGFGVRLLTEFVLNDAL

[18] = potency of ADAM10 substrate cleavage blockers – biochemical, QFRET, dose response (AID 743254);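 also: ADAM10 enzyme with the DM2 quenched FRET peptide as substrate; EDANS fluorescence gain as the protease cuts the substrate; inhibitor potency against ADAM10 proteolytic activity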
[19] = target: Disintegrin and metalloproteinase domain-containing protein 17 (Homo sapiens, UniProt P78536); test: inhibition of ADAM17 substrate cleavage – biochemical, quenched FRET substrate, counter-screen for ADAM10 exosite inhibitor project, dose response (AID 743253)
[20] = Luminescence Cell-Based Dose Retest to Confirm Inhibitors of Cancer Stem Cells. [Related pubchem assays (depositor defined):AID2717, AID2721]; format: functional; settings: Homo sapiens

Disintegrin and metalloproteinase domain-containing protein 17, sequence (P78536 whole entry, the tested form may be a part): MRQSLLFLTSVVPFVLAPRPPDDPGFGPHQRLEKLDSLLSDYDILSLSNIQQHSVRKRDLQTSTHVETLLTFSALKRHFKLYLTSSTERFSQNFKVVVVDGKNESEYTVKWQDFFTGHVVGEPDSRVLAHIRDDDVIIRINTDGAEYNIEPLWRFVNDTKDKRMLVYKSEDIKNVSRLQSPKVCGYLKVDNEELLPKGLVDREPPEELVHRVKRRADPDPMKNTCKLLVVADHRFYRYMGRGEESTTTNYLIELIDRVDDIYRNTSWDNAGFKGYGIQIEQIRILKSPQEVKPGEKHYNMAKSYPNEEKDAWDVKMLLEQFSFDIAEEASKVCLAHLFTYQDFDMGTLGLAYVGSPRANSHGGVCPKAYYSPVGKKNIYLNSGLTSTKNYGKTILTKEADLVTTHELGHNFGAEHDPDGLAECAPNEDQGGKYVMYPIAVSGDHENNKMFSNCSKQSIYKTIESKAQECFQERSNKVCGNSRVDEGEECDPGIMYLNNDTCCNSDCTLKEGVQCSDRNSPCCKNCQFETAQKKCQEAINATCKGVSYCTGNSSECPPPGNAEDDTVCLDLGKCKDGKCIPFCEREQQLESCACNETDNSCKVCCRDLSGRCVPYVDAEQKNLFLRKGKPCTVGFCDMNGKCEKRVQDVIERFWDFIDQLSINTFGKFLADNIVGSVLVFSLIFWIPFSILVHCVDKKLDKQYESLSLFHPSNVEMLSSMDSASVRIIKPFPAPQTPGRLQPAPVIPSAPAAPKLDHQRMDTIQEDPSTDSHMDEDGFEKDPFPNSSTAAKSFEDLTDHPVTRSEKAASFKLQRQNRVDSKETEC
NAD-dependent protein deacylase sirtuin-5, mitochondrial, sequence (Q9NXA8 whole entry): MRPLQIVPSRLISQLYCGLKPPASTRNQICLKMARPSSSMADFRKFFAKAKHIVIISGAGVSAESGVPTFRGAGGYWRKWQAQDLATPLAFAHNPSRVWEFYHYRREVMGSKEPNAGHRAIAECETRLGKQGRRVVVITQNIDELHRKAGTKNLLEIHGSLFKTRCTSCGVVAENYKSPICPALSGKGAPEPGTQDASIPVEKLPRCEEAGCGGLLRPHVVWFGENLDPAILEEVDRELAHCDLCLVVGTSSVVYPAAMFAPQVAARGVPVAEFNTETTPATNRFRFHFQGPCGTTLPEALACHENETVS
Photoreceptor-specific nuclear receptor, sequence (Q9Y5X4 whole entry, the tested form may be a part): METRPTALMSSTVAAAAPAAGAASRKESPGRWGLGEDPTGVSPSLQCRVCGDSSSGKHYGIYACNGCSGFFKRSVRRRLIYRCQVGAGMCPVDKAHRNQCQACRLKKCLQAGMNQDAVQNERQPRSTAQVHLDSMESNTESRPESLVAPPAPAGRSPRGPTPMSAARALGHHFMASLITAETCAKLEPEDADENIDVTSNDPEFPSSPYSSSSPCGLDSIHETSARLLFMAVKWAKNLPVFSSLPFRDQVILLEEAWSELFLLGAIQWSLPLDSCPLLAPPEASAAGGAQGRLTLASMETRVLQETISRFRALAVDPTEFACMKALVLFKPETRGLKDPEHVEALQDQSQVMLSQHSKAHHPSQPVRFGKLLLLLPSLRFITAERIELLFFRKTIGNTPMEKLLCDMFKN

## Cc1cc(C(=O)CSc2nnc3ccccn23)c(C)n1-c1ccccc1
[1]
  EC50: 0.844 µM (active)
[2]
  EC50: < 0.16 µM (active)
[3]
  AC50: 2.08 µM (active)
[4]
  IC50: 14.4 µM (inactive)
[5]
  AC50: > 52 µM (inactive)
[6]
  AC50: 1.06 µM (active)
[7]
  AC50: 1.39 µM (active)

## CCc1ccc(NC(=O)CSc2nnc(-c3ccccn3)n2C)cc1
[8]
  IC50: > 100 µM (active)

## CNC(=O)CSc1nnc(-c2ccco2)n1-c1cccc(C)c1
[9]
  AC50: > 30 µM (inactive)

## CCOC(=O)c1cc(-c2cc(OC)c(OC)c(OC)c2)nc2c1c(=O)[nH]c(=O)n2Cc1ccccc1
[9]
  AC50: > 30 µM (inactive)

## O=S(=O)(CC(CN1CCCCC1)N1CCCCC1)c1ccc2ccccc2c1 (stereo not given)
[10]
  EC50: 2.65 µM (active)
[11]
  EC50: > 60 µM (not active)
[12]
  EC50: 13.9 µM (active)
[3]
  AC50: 12.5 µM (active)
[5]
  AC50: 11.6 µM (active)
[13]
  AC50: 14.6 µM (active)
[6]
  AC50: 22.3 µM (active)
[7]
  AC50: 14 µM (active)
[14]
  AC50: 18.8 µM (active)

## COc1ccc(/C=C/C(=O)c2ccc(C)c([N+](=O)[O-])c2)cc1O
[15]
  CC50: 15.8 µM (active)
[8]
  IC50: > 100 µM (active)
[16]
  EC50: 5.39 µM (active)
[17]
  EC50: 4.65 µM (active)

## O=C(c1ccc(CSc2nc3cc[nH]cc-3n2)cc1)N1CCN(c2cccc(Cl)c2)CC1
[10]
  EC50: 1.39 µM (active)
[11]
  EC50: > 60 µM (not active)
[5]
  AC50: 38 µM (active)
[13]
  AC50: 32.6 µM (active)
[14]
  AC50: 50.4 µM (active)

## CCCN(CC1CC1)C(=O)COC(=O)c1ccc2c(c1)C(=O)N(c1ccc(OCC)cc1)C2=O
[8]
  IC50: > 100 µM (active)

## COc1ccc(-n2c(SCC(=O)Nc3ccc(C(=O)O)cc3)nnc2-c2cccs2)cc1
Leucine aminopeptidase
  IC50: 14.5 µM (active)

## COc1ccc(CCCNC(=O)C2CCC(=O)N(Cc3ccc(Cl)cc3)C2)cc1 (stereo not given)
[9]
  AC50: > 30 µM (inactive)

## Oc1ccc(C[C@H]2CNC(=S)N2C[C@H]2CCCN2C[C@H](Cc2ccccc2)N2C[C@H](Cc3ccc(O)cc3)N(CCc3ccccc3)C2=S)cc1
[18]
  IC50: 15.1 µM (inactive)
[19]
  IC50: > 69.5 µM (inactive)

## CC(=O)N1c2ccc(S(=O)(=O)NCCC(=O)NC3CCC(C)CC3)cc2CC1C (stereo not given)
[9]
  AC50: > 30 µM (inactive)

## CC(O)(c1ccccc1)c1nc(-c2cc3ccccc3o2)cs1 (stereo not given)
[18]
  IC50: 17.2 µM (inactive)
[19]
  IC50: > 69.5 µM (inactive)

## Cc1ccccc1/N=C1\SC(CC(=O)Nc2ccc3ccccc3c2)C(=O)N1Cc1ccccn1 (stereo not given)
[20]
  AC50: 4.16 µM (active)
[12]
  EC50: > 120 µM (inactive)
[18]
  IC50: 12.5 µM (inactive)
[19]
  IC50: > 69.5 µM (inactive)
